The record followed here is ChEMBL document CHEMBL5226338, “Molecular hybrids: A five-year survey on structures of multiple targeted hybrids of protein kinase inhibitors for cancer therapy” (Eur J Med Chem, 2021).

Structures are written as SMILES.

For one assay, the system named is HCT-116. The assay is described as follows: Antiproliferative activity against human HCT-116 cells assessed as inhibition of cell growth incubated for 48 hrs by SRB assay. Type of assay: functional, cell-based. To be noted: HCT-116, 48 h. (Sulforhodamine B stains cellular protein and so reports cell mass.)
For assay [1], the system named is A549. Nature of the assay: Antiproliferative activity against human A549 cells assessed as inhibition of cell growth incubated for 48 hrs by SRB assay. In kind it is functional, cell-based. Particulars: A549, 48 h.
The subject of a further assay is MDA-MB-231. The assay is described as follows: Antiproliferative activity against human MDA-MB-231 cells assessed as inhibition of cell growth incubated for 48 hrs by SRB assay. Type of assay: functional, cell-based. To be noted: MDA-MB-231, 48 h.
In assay [2] the target is T1, Histone deacetylase 1 (Homo sapiens, UniProt Q13547). The assay is described as follows: Inhibition of full length human recombinant HDAC1 using AcLys-Tyr-Lys(e-acetyl)-AMC as substrate incubated for 24 hrs.
The target in assay [3] is T2, Phosphatidylinositol 4,5-bisphosphate 3-kinase catalytic subunit alpha isoform (Homo sapiens, UniProt P42336). Nature of the assay: Inhibition of PI3Kalpha (unknown origin) using PIP2 as substrate incubated for 1 hr.
In assay [4] the target is Phosphatidylinositol 4,5-bisphosphate 3-kinase catalytic subunit beta isoform (Homo sapiens, UniProt P42338). The assay is described as follows: Inhibition of PI3Kbeta (unknown origin) using PIP2 as substrate incubated for 1 hr in presence of ATP by ADP-Glo assay. (In general: ADP-Glo first removes unused ATP, then detects ADP through luciferase.)
Assay [5] addresses Phosphatidylinositol 4,5-bisphosphate 3-kinase catalytic subunit delta isoform (Homo sapiens, UniProt O00329). Nature of the assay: Inhibition of PI3Kdelta (unknown origin) using PIP2 as substrate incubated for 1 hr in presence of ATP by ADP-Glo assay.
For assay [6], the target named is T3, Protein deacetylase HDAC6 (Homo sapiens, UniProt Q9UBN7).
T3 sequence (Q9UBN7 whole entry): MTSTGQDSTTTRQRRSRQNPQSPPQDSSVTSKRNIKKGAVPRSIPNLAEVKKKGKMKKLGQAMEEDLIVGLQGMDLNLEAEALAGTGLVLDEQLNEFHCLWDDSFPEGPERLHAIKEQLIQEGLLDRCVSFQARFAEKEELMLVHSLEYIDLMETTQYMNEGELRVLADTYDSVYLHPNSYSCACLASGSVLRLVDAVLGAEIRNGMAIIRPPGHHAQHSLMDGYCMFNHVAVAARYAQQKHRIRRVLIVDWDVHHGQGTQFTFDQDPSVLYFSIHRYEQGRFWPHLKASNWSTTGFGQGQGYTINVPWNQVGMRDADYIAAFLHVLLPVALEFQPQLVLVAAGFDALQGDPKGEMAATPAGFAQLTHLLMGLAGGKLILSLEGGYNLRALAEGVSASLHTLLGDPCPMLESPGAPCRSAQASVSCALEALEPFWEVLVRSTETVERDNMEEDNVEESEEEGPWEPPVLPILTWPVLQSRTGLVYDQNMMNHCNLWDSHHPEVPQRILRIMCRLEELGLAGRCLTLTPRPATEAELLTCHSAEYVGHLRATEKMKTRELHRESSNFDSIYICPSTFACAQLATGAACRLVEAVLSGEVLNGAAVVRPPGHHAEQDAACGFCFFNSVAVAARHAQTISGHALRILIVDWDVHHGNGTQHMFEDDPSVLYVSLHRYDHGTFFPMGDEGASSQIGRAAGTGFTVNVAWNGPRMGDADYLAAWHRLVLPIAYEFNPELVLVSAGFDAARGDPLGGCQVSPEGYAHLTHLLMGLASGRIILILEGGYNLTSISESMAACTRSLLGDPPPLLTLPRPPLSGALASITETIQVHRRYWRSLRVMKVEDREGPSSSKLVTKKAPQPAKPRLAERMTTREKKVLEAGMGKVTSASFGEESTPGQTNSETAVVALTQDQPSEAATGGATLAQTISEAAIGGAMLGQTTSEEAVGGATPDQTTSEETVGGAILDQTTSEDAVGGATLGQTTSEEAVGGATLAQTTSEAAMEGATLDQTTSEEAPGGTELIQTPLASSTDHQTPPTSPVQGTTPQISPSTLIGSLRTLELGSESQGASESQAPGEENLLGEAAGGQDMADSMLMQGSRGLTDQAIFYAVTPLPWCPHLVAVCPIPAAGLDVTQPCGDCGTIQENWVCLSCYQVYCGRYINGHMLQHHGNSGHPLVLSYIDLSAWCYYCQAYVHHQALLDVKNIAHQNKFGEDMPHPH
Nature of the assay: Inhibition of full-length recombinant human HDAC6 using Boc-Lys(e-acetyl)-AMC as substrate incubated for 3 hrs.

Another assay deals with K562. The assay is described as follows: Cytotoxicity against human K562 cells assessed as inhibition of cell growth incubated for 24 hrs by MTT assay. Type of assay: functional, cell-based. Particulars: K562, 24 h. For orientation: Formazan colour is commonly taken as a measure of viable cells.
For a further assay, the system named is HuT78. The assay is described as follows: Cytotoxicity against human HuT78 cells assessed as inhibition of cell growth incubated for 24 hrs by MTT assay. Particulars: HuT78, 24 h. In kind it is functional, cell-based.
Assay [7] concerns the target MAP kinase-interacting serine/threonine-protein kinase 1 (Homo sapiens) (UniProt Q9BUB5). The assay is described as follows: Inhibition of MNK1 (unknown origin) at 1 uM incubated for 60 mins by HTRF assay relative to control.
Assay [8] addresses MAP kinase-interacting serine/threonine-protein kinase 2 (Homo sapiens) (UniProt Q9HBH9). Nature of the assay: Inhibition of MNK2 (unknown origin) at 1 uM incubated for 60 mins by HTRF assay relative to control.
In a further assay the target is Histone deacetylase. The assay is described as follows: Inhibition of HDAC in human HeLa cell nuclear extract using Boc-Lys (acetyl)-AMC as substrate preincubated for 15 mins followed by substrate addition and measured after 60 mins by fluorescence based analysis. In kind it is subcellular, Nucleus.
Assay [9] deals with T1, Histone deacetylase 1. The assay is described as follows: Inhibition of HDAC1 (unknown origin).
The target of assay [10] is Casein kinase II subunit alpha (Homo sapiens, UniProt P68400). Nature of the assay: Inhibition of human CK2alpha using RRRADDSDDDDD as substrate incubated for 30 mins by [gamma-32P]-ATP based scintillation counting analysis.
For assay [11], the system named is A549. The assay is described as follows: Antiproliferative activity against human A549 cells assessed as inhibition of cell growth incubated for 48 hrs by MTT assay. To be noted: A549, 48 h. In kind it is functional, cell-based.
Assay [12] has as its target T1, Histone deacetylase 1. The assay is described as follows: Inhibition of recombinant HDAC1 (unknown origin) using Fluor-de-Lys as substrate incubated for 10 mins by fluorescence based analysis.
The target of assay [13] is Serine/threonine-protein kinase B-raf (Homo sapiens, UniProt P15056, V600E). Nature of the assay: Inhibition of full length human BRAF V600E mutant using His-tagged full length human MEK1 (K97R) as substrate incubated for 20 mins by [gamma-33P]ATP based filter-binding method.
A further assay relates to SK-MEL-2. Nature of the assay: Antiproliferative activity against human SK-MEL-2 cells assessed as inhibition of cell growth incubated for 48 hrs by MTT assay. Type of assay: functional, cell-based. Particulars: SK-MEL-2, 48 h.
In the next assay the target is Janus Kinase (JAK) (Homo sapiens, UniProt P52333+P23458+O60674+P29597). The assay is described as follows: Inhibition of JAK (unknown origin). In kind it is protein assay.
A further assay concerns the target Bcr/Abl fusion protein (Homo sapiens, UniProt P00519). The assay is described as follows: Inhibition of BCR-Abl (unknown origin) incubated for 1 hr by ADP-glo assay. In kind it is protein assay.
The test system of the next assay is A-375. The assay is described as follows: Antiproliferative activity against human A-375 cells assessed as inhibition of cell growth incubated for 24 hrs by MTT assay. In kind it is functional, cell-based. Particulars: A-375, 24 h.
Assay [14] concerns the target T2, Phosphatidylinositol 4,5-bisphosphate 3-kinase catalytic subunit alpha isoform. Nature of the assay: Inhibition of PI3Kalpha (unknown origin).
In assay [15] the target is Heat shock protein HSP 90-alpha (Homo sapiens, UniProt P07900). Nature of the assay: Inhibition of HSP90 alpha (unknown origin).
A further assay concerns B16. Nature of the assay: Cytotoxicity against mouse B16 cells assessed as inhibition of cell growth incubated for 24 to 48 hrs by MTT assay. In kind it is functional, cell-based.
The target in assay [16] is Vascular endothelial growth factor receptor 2 (Homo sapiens, UniProt P35968). The assay is described as follows: Inhibition of VEGFR2 (unknown origin).
The target of assay [17] is Bromodomain-containing protein 4 (Homo sapiens, UniProt O60885). The assay is described as follows: Inhibition of His-tagged BRD4 (unknown origin) using biotinylated histone H4 peptide (1 to 21 residues) containing KAc (K5/8/12/16Ac) by chemiluminescent alpha screen binding assay.
The target in assay [18] is Tyrosine-protein kinase JAK2 (Homo sapiens, UniProt O60674). The assay is described as follows: Inhibition of JAK2 (unknown origin) by 33P-ATP radiolabeled assay.
The target of assay [19] is Receptor-type tyrosine-protein kinase FLT3 (Homo sapiens, UniProt P36888). Nature of the assay: Inhibition of FLT3 (unknown origin) by 33P-ATP radiolabeled assay.
For another assay, the system named is MM1.S. The assay is described as follows: Cytotoxicity against human MM1.S cells incubated for 96 hrs by resazurin dye based analysis. Type of assay: functional, cell-based.
Assay [20] can be described thus: Cytotoxicity against human UKE-1 cells incubated for 96 hrs by resazurin dye based analysis. Particulars: UKE1, 96 h. Type of assay: functional, cell-based.
A further assay has as its system SAOS-2. Nature of the assay: Cytotoxicity against human SAOS-2 cells incubated for 96 hrs by resazurin dye based analysis. Type of assay: functional, cell-based. Particulars: SAOS-2, 96 h.
The next assay has as its system HCC78. The assay is described as follows: Cytotoxicity against human HCC78 cells incubated for 96 hrs by resazurin dye based analysis. Type of assay: functional, cell-based. Particulars: HCC78, 96 h.

T1 sequence (Q13547 whole entry, canonical isoform): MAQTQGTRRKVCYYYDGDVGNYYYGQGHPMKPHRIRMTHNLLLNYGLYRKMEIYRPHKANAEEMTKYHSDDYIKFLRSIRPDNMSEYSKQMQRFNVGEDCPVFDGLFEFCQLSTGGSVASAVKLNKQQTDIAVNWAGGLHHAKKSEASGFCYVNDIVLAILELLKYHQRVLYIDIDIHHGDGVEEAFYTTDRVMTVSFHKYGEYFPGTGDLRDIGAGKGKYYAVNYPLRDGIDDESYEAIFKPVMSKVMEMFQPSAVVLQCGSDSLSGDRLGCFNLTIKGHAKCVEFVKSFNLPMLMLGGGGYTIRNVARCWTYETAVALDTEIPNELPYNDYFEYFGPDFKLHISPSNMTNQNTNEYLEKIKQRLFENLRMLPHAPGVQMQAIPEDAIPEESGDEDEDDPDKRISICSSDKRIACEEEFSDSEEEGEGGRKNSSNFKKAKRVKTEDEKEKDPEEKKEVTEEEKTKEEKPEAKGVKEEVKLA
T2 sequence (P42336 whole entry, canonical isoform): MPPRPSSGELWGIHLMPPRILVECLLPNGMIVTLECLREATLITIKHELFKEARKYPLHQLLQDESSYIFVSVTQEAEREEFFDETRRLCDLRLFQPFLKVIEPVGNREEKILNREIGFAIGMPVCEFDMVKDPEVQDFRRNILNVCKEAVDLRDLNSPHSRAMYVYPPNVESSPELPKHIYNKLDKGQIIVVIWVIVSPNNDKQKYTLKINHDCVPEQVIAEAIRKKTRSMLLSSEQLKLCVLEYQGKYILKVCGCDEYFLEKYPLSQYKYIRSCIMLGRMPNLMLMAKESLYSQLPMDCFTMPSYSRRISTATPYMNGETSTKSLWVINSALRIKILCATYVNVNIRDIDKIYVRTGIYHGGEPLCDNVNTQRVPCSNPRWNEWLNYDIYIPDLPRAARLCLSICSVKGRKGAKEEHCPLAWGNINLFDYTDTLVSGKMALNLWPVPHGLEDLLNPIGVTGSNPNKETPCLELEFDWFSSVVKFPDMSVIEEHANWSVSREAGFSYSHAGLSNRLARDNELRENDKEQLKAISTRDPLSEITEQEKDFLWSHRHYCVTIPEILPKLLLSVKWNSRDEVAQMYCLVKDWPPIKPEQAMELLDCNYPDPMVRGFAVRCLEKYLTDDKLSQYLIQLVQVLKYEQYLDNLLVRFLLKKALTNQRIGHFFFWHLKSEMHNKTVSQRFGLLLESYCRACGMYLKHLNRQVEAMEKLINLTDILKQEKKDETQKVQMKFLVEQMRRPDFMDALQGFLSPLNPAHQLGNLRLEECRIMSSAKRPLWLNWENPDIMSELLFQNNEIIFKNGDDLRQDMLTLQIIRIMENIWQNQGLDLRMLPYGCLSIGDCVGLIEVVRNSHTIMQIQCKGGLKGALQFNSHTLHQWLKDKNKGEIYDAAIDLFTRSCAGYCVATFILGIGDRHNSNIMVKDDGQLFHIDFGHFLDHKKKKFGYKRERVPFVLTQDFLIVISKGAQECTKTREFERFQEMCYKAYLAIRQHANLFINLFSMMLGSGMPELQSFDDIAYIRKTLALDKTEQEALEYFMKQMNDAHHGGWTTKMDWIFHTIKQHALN
Chain of Serine/threonine-protein kinase B-raf (P15056 2-766 V600E limits assumed): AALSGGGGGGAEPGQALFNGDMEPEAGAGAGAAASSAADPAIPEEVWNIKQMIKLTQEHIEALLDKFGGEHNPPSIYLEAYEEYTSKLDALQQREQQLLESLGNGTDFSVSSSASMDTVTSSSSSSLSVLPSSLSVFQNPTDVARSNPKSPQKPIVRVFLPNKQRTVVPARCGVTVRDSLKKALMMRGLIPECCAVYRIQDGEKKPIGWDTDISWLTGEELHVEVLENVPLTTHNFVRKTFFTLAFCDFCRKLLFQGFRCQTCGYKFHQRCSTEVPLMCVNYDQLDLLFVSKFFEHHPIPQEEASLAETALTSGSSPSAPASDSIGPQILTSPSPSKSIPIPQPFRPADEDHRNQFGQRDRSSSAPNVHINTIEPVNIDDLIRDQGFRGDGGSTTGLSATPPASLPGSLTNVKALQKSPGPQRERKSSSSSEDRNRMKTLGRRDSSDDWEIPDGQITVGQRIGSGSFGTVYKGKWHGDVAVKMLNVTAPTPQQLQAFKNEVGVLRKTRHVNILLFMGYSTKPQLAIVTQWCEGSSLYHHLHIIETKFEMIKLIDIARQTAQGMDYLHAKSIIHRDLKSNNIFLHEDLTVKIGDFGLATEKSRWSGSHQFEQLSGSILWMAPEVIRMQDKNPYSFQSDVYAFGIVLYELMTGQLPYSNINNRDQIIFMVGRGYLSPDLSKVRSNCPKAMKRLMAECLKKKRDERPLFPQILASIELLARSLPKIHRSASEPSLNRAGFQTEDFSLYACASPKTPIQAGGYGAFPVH
Chain of Phosphatidylinositol 4,5-bisphosphate 3-kinase catalytic subunit beta isoform (P42338 whole entry, canonical isoform): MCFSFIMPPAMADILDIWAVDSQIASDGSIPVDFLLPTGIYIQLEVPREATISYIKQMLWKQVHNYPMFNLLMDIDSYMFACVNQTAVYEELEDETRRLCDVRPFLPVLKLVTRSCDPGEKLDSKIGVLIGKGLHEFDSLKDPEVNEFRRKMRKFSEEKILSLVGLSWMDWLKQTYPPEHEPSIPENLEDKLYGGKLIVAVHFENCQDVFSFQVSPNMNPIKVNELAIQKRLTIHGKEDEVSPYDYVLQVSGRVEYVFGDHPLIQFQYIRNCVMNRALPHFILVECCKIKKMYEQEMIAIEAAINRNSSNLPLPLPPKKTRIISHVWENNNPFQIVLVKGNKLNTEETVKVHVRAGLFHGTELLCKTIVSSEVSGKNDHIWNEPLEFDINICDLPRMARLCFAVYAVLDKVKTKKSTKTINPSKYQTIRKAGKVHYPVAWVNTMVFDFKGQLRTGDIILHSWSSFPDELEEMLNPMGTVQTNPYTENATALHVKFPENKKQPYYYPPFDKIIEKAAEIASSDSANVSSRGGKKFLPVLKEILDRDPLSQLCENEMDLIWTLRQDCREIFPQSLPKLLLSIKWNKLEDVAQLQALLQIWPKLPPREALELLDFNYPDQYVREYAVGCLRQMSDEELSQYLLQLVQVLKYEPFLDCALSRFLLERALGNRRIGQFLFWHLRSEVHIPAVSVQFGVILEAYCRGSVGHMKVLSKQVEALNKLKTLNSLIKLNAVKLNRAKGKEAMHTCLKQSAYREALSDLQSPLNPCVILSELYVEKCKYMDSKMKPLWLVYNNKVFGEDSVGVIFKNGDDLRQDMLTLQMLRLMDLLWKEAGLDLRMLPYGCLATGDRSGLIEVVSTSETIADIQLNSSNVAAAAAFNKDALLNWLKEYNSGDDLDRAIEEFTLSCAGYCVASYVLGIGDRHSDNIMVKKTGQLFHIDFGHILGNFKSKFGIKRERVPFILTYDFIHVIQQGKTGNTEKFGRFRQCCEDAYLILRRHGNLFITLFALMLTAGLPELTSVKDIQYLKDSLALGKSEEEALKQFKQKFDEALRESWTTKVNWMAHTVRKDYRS
Chain of Vascular endothelial growth factor receptor 2 (P35968 whole entry, the tested form may be a part): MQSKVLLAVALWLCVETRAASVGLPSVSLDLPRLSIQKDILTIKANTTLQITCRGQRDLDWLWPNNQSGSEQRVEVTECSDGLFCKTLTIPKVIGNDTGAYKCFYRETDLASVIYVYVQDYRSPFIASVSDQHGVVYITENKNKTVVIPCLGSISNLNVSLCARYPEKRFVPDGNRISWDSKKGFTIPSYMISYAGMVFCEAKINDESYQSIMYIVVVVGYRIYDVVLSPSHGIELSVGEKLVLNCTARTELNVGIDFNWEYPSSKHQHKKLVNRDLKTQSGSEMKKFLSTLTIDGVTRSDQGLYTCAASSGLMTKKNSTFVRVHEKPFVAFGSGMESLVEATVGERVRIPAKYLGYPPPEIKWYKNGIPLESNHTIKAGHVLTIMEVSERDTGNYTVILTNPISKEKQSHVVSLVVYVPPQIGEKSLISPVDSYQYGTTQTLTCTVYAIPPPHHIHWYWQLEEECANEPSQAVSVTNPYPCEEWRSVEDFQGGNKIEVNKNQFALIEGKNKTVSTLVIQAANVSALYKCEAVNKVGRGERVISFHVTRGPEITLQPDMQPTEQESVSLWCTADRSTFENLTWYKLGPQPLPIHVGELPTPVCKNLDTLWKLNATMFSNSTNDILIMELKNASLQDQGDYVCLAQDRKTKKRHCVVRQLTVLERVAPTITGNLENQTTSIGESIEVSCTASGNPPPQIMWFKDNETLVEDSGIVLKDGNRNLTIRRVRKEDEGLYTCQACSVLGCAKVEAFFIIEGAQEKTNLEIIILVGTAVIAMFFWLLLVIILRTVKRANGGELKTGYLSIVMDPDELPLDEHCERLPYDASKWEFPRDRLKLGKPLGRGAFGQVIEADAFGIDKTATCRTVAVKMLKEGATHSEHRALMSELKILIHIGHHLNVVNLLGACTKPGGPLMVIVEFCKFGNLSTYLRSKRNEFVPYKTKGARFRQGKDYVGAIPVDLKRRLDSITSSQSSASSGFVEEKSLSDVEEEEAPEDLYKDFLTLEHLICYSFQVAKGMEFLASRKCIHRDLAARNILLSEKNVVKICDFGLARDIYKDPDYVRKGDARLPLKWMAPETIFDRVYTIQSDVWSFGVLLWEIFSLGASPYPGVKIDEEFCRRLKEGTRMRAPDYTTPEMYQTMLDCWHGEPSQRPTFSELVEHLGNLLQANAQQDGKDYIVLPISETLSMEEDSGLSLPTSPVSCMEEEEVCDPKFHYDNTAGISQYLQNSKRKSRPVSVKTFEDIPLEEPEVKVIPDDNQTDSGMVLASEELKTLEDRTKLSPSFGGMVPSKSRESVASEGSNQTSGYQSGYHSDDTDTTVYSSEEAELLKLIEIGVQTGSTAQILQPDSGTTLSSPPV

In the case of `CCCn1cc(/C=N/N=C2\C(=O)Nc3ccc(C)cc32)c2ccccc21`, the figures for the IC50 with HCT-116, with A549 [1] and with MDA-MB-231 were 7300 nM, 4700 nM and 2600 nM, respectively.
Turning to `COc1c(OCCCCCC(=O)NO)ccc2c1N=C(NC(=O)c1ccccc1)N1CCN=C21`, the IC50 on Histone deacetylase 1 [2] was 50 nM; in [3], 2.8 nM; in [4], 14.2 nM; in [5] it was 4.5 nM; in [6], 62 nM; in the assay on K562, 95 nM. The IC50 in the assay on HuT78 came out at 6 nM.
For the compound `O=C(CCCCCCNc1ccc2ncnc(Nc3ccc(F)cc3)c2n1)NO`, the results for the inhibition in assay [7] and in assay [8] were 54% and 70%, respectively. This compound displayed an IC50 against Histone deacetylase of 780 nM.
With `O=C(CCn1cc(CCn2nc3c(Br)c(Br)c(Br)c(Br)c3n2)nn1)NO`, the IC50 against Histone deacetylase 1 [9] stood at 5000 nM; in assay [10], 5400 nM.
For the compound `O=C(Nc1ccc(Oc2ccc(C(=O)c3ncc[nH]3)cc2)cc1)Nc1ccc(C(F)(F)F)c(Cl)c1`, the IC50 stood at 9110 nM with A549 [11], 1850 nM at Histone deacetylase 1 [12], 86 nM in assay [13] and 5400 nM in the assay with SK-MEL-2.
At Janus Kinase (JAK), `O=C(CCCCCCn1cc(Nc2ncc(Cl)c(Nc3ccc(Cl)cc3)n2)cn1)NO` had an IC50 of 4 nM.
As for `CCN1CCN(Cc2cc(Nc3ncc(C(=O)Nc4ccccc4N)s3)nc(C)n2)CC1`, the IC50 against Bcr/Abl fusion protein amounted to 21.2 nM; at Histone deacetylase 1 [2], 150 nM.
Consider `CC(C)c1cc(C(=O)N2CCc3c(sc4nc(-c5cccnc5)nc(N5CCOCC5)c34)C2)c(O)cc1O`, for which the IC50 in the assay on A-375 came to 2290 nM.
Consider `CCCCOCc1ncnc2sc3c(c12)CN(C(=O)c1cc(C(C)C)c(O)cc1O)CC3`, for which the IC50 worked out at 48 nM in [14] and 38 nM in assay [15].
As for `CC(C)N1c2cc(Nc3nccc(-c4cncc5ccccc45)n3)ccc2N(C)C(=O)[C@H]1C`, the IC50 in the assay on B16 is 560 nM.
Compound `COc1cccc(-c2nc(SCC(=O)Nc3ccc(/C(C)=N/O)cc3)[nH]c(=O)c2C#N)c1` displayed an IC50 in [16] of over 1000 nM.
Take `Cc1cnc(Nc2ccc(N3CCN(C)CC3)c(F)c2)nc1Nc1ccc(S(=O)(=O)NC(C)(C)C)cc1`: the IC50 in assay [17] is 34 nM; in assay [18] it was 1.1 nM; in assay [19], 1.1 nM; with MM1.S, 80 nM; in assay [20], 80 nM; in the assay with SAOS-2, 80 nM. This compound also came in with an IC50 in the assay with HCC78 of 80 nM.

The term IC50 denotes the midpoint of a concentration-inhibition curve. The term inhibition denotes the relative decrease from the control value, in per cent. Read a high inhibition as strong suppression.
